The source of these data is US11590110B2, “Compositions and methods for reactivating latent immunodeficiency virus using a GSK-3 inhibitor” (priority 2017, dated 2023).

Data set [1] concerns latent HIV-1 in blood CD4+ T cells from infected individuals on suppressive ART. In kind it is cell-based.
The test system of another data set is patient CD4+ T cells. As to the kind of experiment: Example 7: viability of patient CD4+ T cells, Cell-titer blue. The settings on record: 48 h.
For data set [2] the following is noted: also in the brain; cited from earlier work.
For a further data set, the system named is CD4+ T cells. Put plainly: Example 5: surface expression of activation markers CD69 and CD25, flow cytometry. To be noted: 48 hours. In kind it is cell-based, human. As for the experimental part: Freshly isolated PBMCs or CD4^+ T cells were stained for viability, using the fixable viability dye Zombie violet (1:50, Biolegend) according to the manufacturer's recommendation. Surface staining was performed with the following antibodies at 1:100 dilutions: CD3-PE-Cy7, CD4-APC-Cy7, CD69-FITC, CD25-PE (all 1:100, Biolegend), and Glut-1-Ax647 (BD Bioscience, 566580) in staining buffer for 20 min on ice and cells were fixed in 1% PFA-containing PBS. All flow analysis was performed on the LSRII (BD Biosciences) using FlowJo software (v.10.4.2). Color compensations were performed using single-stained samples for each of the fluorochromes used. Data were analyzed using FlowJo software (TreeStar, San Carlos, Calif.).
A general note: In flow cytometry, cells or beads pass a laser one at a time.

For another data set, the system named is CD8+ T cells. Put plainly: Example 5: CD8 T-cell viability and cytotoxic effector functions. In kind it is cell-based, human. On the procedure: After drug treatment, human PBMCs were cultured in complete RPMI in the presence of CD107a-BV650 (1:50, 328637, BioLegend) or CD107a-FITC antibodies (1:50, 555800, BD Bioscience) and PMA/ionomycin (50 ng/ml and 1 uM) dor 3.5 hours, adding Brefeldin A and Monensin (eBioscience) for the last hour. Cells were subsequently stained for viability using the viability dyes eFluor 506, (eBioscience) according to the provided protocol. After surface marker staining with the following antibodies (all at 1:100 dilution): CD3-APC-H7 (560176; BD Biosciences), CD8-V450 (560347; BD Biosciences), CD45RA-APC (17-0458; eBioscience), and CCR7-PE-Cy7 (557648; BD Biosciences), cells were permeabilized and fixed using the Foxp3/Transcription Factor Fixation/Permeabilization Concentrate and Diluent kit (eBioscience). Intracellular staining was performed with IFN-γ-PerCP-Cy5.5 antibody (1:100, 560704, BD Bioscience) in FOXP3 perm/wash buffer for 1 h at 4° C. After washing and fixation of the cells in 1% paraformaldehyde/PBS, cells were analyzed by flow cytometry. Final data stems from having gated on CD8hi- and CD8lo-expressing T cells.

The subject of data set [3] is latent HIV-1 in GALT cultures from HIV-positive donors on suppressive ART. As to the kind of experiment: Example 5: latency reversion in gut-associated lymphoid tissue (GALT) cultures, ddPCR. In kind it is cell-based. As for the experimental part: PBMCs and CD4^+ T cells from HIV-positive donors were cultured and treated in the presence of 5 μM saquinavir. For gut-associated lymphoid tissue (GALT) cells, to remove the epithelium and epithelial cells, 30 tissue biopsy tissue pieces were incubated in pre-warmed buffer containing 10 mM DTT, 5 mM EDTA, 10 mM HEPES and 5% FBS for 20 minutes at 37° C. under continuous rotation, vortexed and the supernatant aspirated. Tissue pieces were then incubated for a second time in the same pre-warmed buffer for a further 20 minutes at 37° C. under continuous rotation. The sample was again vortexed, and then rinsed for 20 minutes at 37° C. under continuous rotation with RMPI, 10 mM HEPES and 5% FBS. To then isolate lymphocytes from the lamina propria, a second, pre-warmed buffer containing RPMI, 10 mM HEPES, 7.5 µg/ml DNAse and 5% FBS was applied to the tissue pieces, and these were again incubated for 20 minutes at 37° C. under continuous rotation. […]
5 million resting CD4^+ T lymphocytes were plated and either left unstimulated (media alone plus DMSO), stimulated with anti-CD3/CD28 coated or incubated with LRAs for 48 hours. […] Subsequently, ddPCR was applied to quantify pre-amplified cDNA. […] Finally, samples were amplified on a BioRad C1000 Thermocycler and analyzed using a BioRad QX100 ddPCR Reader. […]

The test system of another data set is NF-κB (p65). As to the kind of experiment: Example 5: NF-κB p65 nuclear translocation, western blot of nuclear extracts. To be noted: 1 μM tideglusib or anti-CD3/CD28 coated beads; CD4+ T cells of three HIV-negative participants. The data set is classed as cell-based, human. In general terms: Immunoblotting shows a protein as a band on a membrane.
The mark [4] stands for this setting: pre-treatment 1 μM 48 hours, then PMA/ionomycin.

Structures are written as SMILES.

Description for NF-κB (p65): Nuclear extracts were prepared from purified CD4^+ T cells using the NE-PER Nuclear and Cytoplasmic Extraction reagent supplemented with protease inhibitor cocktail, as specified by the manufacturers protocol (Thermoscientific, catalogue no. 78833). Protein concentration of extracts was determined by Biorad protein assay (Biorad, catalogue no. 5000001). Nuclear extracts were resolved by electrophoresis on a 10% SDS-polyacrylamide gel using 15 μg of protein per condition and then transferred to PVDF membrane. Membranes were immunoblotted with primary antibodies for p65 (Cell signal Tech., catalogue no. 8242) and TATA binding protein (Abcam, catalogue no. ab63766); primary antibodies were diluted at 1:1000. Detection of primary antibodies was achieved by incubation with HRP conjugated secondary antibody. Bands were visualized by chemiluminescent detection using Immobilon Forte Western HRP ECL substrate (Millipore, catalogue no. WBLUF0100) followed by exposure to hyperfilm ECL (GE/Amersham, catalogue no. 45001508).

Turning to `O=c1sn(-c2cccc3ccccc23)c(=O)n1Cc1ccccc1` [Tideglusib, 4-benzyl-2-(naphthalen-1-yl)-1,2,4-thiadiazolidine-3,5-dione], the “release of virus-associated HIV-1 mRNA relative to bryostatin-1, by median values” in data set [1] (1 μM tideglusib vs 10 nM bryostatin-1) is listed as “twofold more”. Moreover, the “virus-associated HIV-1 mRNA, median value” in data set [1] (1 μM, 48 hours, relative to untreated control) is 10.3 fold. The “toxicity based on cell-titer blue testing” value in the data set on patient CD4+ T cells is “Neither tideglusib nor SB216763 induced toxicity”. For the same compound, in data set [2], the tissue-permeability result was “high tissue-permeability also in the brain”. In addition, the “surface expression of the activation markers CD69 or CD25” value in the data set with CD4+ T cells is listed as “no increase”. For the same compound, in the data set on CD8+ T cells (48 hours), the “viability of CD8+ T cells” value was “did not reduce viability”. In the data set on CD8+ T cells (setting [4]), the “IFN-γ production in CD8+ T cells” value is recorded as “increase in IFN-γ production” and the “surface expression of CD107a in CD8+ T cells” value is recorded as “increased surface expression of CD107a”. In addition, in data set [3] (1 μM, 24 hours, relative to untreated control), the “virus-associated mRNA in culture supernatant, median value” is 20.69 fold. Besides, the “virus release vs untreated control” value in data set [3] (GALT cultures) is “over 20 fold”. Besides, the “time of peak p65 nuclear translocation” value in the data set with NF-κB (p65) turned out to be 60 min.
